Several values for one entry are separate records, joined by “and”; a condition that tells them apart may be missing. Equal values may be shown once. After the bases stand the sugars from the 5' end (letter, count) and the backbone: PS all phosphorothioate, else s phosphorothioate and o phosphodiester by linkage. Methylation of C is not given here. k = constrained ethyl (cEt); d = 2'-deoxy (DNA)
Each sequence was assayed against MALAT1. Conditions: ASO, A431, 0.005 µM.

| Sequence | target mRNA inhibition |
| --- | --- |
| ATAACTGATCTGACTT (sugars k3 d10 k3, PS) | -5% |
| CTCGATGGAAAAATTT (sugars k3 d10 k3, PS) | 8% |
| AGCTTTACCTTCTAAC (sugars k3 d10 k3, PS) | 47% |
| CGTTACCTTGAAACCG (sugars k3 d10 k3, PS) | 36% |
| CGTTAAAAACTTAACG (sugars k3 d10 k3, PS) | 13% |
| TCAAGTGGCCTTTTAA (sugars k3 d10 k3, PS) | -38% |
| AGAGAAGAATCCCCCC (sugars k3 d10 k3, PS) | 28% |
| GGTTAGGTATGAGCTT (sugars k3 d10 k3, PS) | 8% |
| TAATAGCAGCGGGATC (sugars k3 d10 k3, PS) | 30% |
| TTATCCTGATATTGGA (sugars k3 d10 k3, PS) | -12% |
| TCATCAACAAAAGCCC (sugars k3 d10 k3, PS) | -8% |
| TTAAAAGATCGCCTTC (sugars k3 d10 k3, PS) | 43% |
| GCCTGCTACCTTCATC (sugars k3 d10 k3, PS) | 36% |
| GCAAGGTCTCATACAC (sugars k3 d10 k3, PS) | 48% and 59% |
| AGTTACATGTTCCCAC (sugars k3 d10 k3, PS) | 33% |
| GAAAAAGCTTGTTCAC (sugars k3 d10 k3, PS) | 28% |
| GTTTTATCTAAATACC (sugars k3 d10 k3, PS) | 29% |
| AGCTTGTTCACCTGTT (sugars k3 d10 k3, PS) | 37% |
| TCTGATTATCCTGATA (sugars k3 d10 k3, PS) | 11% |
| ATATCTTAGTAACCTA (sugars k3 d10 k3, PS) | 15% |
| ACAACTCGCATCACCG (sugars k3 d10 k3, PS) | -212% |
| CCTCACGGATTTTTAC (sugars k3 d10 k3, PS) | -1% |
| CTGAAGTCAAGACAAC (sugars k3 d10 k3, PS) | -17% |

| Sequence | target mRNA inhibition |
| --- | --- |
| CCCTCTAAGAGACATT (sugars k3 d10 k3, PS) | 32% |
| CTTCGGTTTAATCTCT (sugars k3 d10 k3, PS) | 73% and 54% |
| AAAAAGGCTCGATGGA (sugars k3 d10 k3, PS) | 52% |
| GCCTTTAGGATTCTAG (sugars k3 d10 k3, PS) | 30% |
| ATTTATTTCGGCTTCT (sugars k3 d10 k3, PS) | 71% and 90% |
| AGCTTGGCCAAGTCTG (sugars k3 d10 k3, PS) | 28% |
| CTCAGGGTTATGCTTA (sugars k3 d10 k3, PS) | 40% |
| ACAACAATTTAGAGCT (sugars k3 d10 k3, PS) | 11% |
| CCTGCTACCTTCATCA (sugars k3 d10 k3, PS) | 22% |
| TTGTGAGGGAGGCAAA (sugars k3 d10 k3, PS) | 20% |
| ATTCACCAAGGAGCTG (sugars k3 d10 k3, PS) | 39% |
| CTTGATCCCAACTCAT (sugars k3 d10 k3, PS) | 11% |
| GCTCTGTAGTCCTTTC (sugars k3 d10 k3, PS) | 42% |
| ATCCACTTCTGTGTAG (sugars k3 d10 k3, PS) | 38% |
| TTCGGTTTAATCTCTT (sugars k3 d10 k3, PS) | 94% |
| AAAGAGTGTTCGCAGA (sugars k3 d10 k3, PS) | 54% |
| TTAAGAGCTGCTATAA (sugars k3 d10 k3, PS) | 6% |
| GAGGGCCTCTATTGCC (sugars k3 d10 k3, PS) | 14% |
| CCCCAGTTCAATACTT (sugars k3 d10 k3, PS) | 25% |
| GACTGAATATGAACCA (sugars k3 d10 k3, PS) | 51% and 76% |
| ATGGAAAGCGAGTTCA (sugars k3 d10 k3, PS) | 14% |
| CCCGGAACTTTTAAAA (sugars k3 d10 k3, PS) | -7% |
| GCTTGGGAAATCTTAG (sugars k3 d10 k3, PS) | 7% |

| Sequence | target mRNA inhibition |
| --- | --- |
| CCTTCGGTTTAATCTC (sugars k3 d10 k3, PS) | 61% and 58% |
| AAAGTAGTTCTTCGGT (sugars k3 d10 k3, PS) | 17% |
| CGAGAAATCGGAGCAG (sugars k3 d10 k3, PS) | 22% |
| CAAGCATTCCTTCGGA (sugars k3 d10 k3, PS) | 25% |
| GCCTTTTCTAACATAG (sugars k3 d10 k3, PS) | -1% |
| CCCCAATGGAGGTATG (sugars k3 d10 k3, PS) | 37% |
| ACTGAAGAGCATTGGA (sugars k3 d10 k3, PS) | 34% |
| AATGGACATCTCTTCC (sugars k3 d10 k3, PS) | 27% |
| AGTCACTGGATAAGTA (sugars k3 d10 k3, PS) | 41% |
| GCCTTTATCACTCAGC (sugars k3 d10 k3, PS) | 29% |
| ACAAACTTGCCATCTA (sugars k3 d10 k3, PS) | 39% |
| TTCACCAAGGAGCTGT (sugars k3 d10 k3, PS) | 37% |
| CCTTAGTTGGCATCAA (sugars k3 d10 k3, PS) | 82% and 63% |
| TCTAGGCCATCATACT (sugars k3 d10 k3, PS) | 40% |
| TGATTTTAAGGTTGCA (sugars k3 d10 k3, PS) | 70% and 67% |
| TAATTACTCTTGATCT (sugars k3 d10 k3, PS) | 48% and 72% |
| GTCAAGACAACTGCAT (sugars k3 d10 k3, PS) | 3% |
| TGGAATCCTGTCTGCT (sugars k3 d10 k3, PS) | 17% |
| CCTTCCGCCGCCTCTT (sugars k3 d10 k3, PS) | 3% |
| GTTACTCCAGCATAAA (sugars k3 d10 k3, PS) | 0% |
| TGAAACCGATTATGGA (sugars k3 d10 k3, PS) | 3% |
| TGAACCGGAGCAGGAA (sugars k3 d10 k3, PS) | 5% |
| GAGAAAGTGCCATGGT (sugars k3 d10 k3, PS) | 26% |

| Sequence | target mRNA inhibition |
| --- | --- |
| TTACCCCAACTAAACA (sugars k3 d10 k3, PS) | -4% |
| GGGAGTTGAGGCAAGT (sugars k3 d10 k3, PS) | 6% |
| TTAAGTTGGTAATTAC (sugars k3 d10 k3, PS) | -6% |
| CTTCATTACCCCAACT (sugars k3 d10 k3, PS) | 14% |
| TTAAAGTGTGATAGTT (sugars k3 d10 k3, PS) | 6% |
| GTTGAGGCAAGTCCTC (sugars k3 d10 k3, PS) | 3% |
| TGGAGATCAGCTTCCG (sugars k3 d10 k3, PS) | 18% |
| GATCACCTTCCGCCGC (sugars k3 d10 k3, PS) | 6% |
| AGCAGCACGGGCTGTC (sugars k3 d10 k3, PS) | 10% |
| CGCTCCTTCCTGGAAT (sugars k3 d10 k3, PS) | -19% |
| TTTACACCTCAGTACG (sugars k3 d10 k3, PS) | 35% |
| TGCAGGGACGGTTGAG (sugars k3 d10 k3, PS) | -22% |
| TTGAATTACTTCCGTT (sugars k3 d10 k3, PS) | 54% and 35% |
| GGACGGTTGAGAAGTG (sugars k3 d10 k3, PS) | -4% |
| TCCTGAAAGTGCTCAC (sugars k3 d10 k3, PS) | -7% |
| CAAAAAGTAGTTCTTC (sugars k3 d10 k3, PS) | -18% |
| GCTAAGCAATATCTTA (sugars k3 d10 k3, PS) | 32% |
| AAACCCCCGGAACTTT (sugars k3 d10 k3, PS) | 5% |
| CCAACCGTAACAGGCC (sugars k3 d10 k3, PS) | 27% |
| ACCAAAGACCTCGACA (sugars k3 d10 k3, PS) | 14% |
| TCTGTTACACCTTGAG (sugars k3 d10 k3, PS) | 48% and 64% |
| CAATGCACTAAAGATC (sugars k3 d10 k3, PS) | 10% |
| TAAAAGATCGCCTTCA (sugars k3 d10 k3, PS) | 41% |

| Sequence | target mRNA inhibition |
| --- | --- |
| CCCCCAAGATTGCCCC (sugars k3 d10 k3, PS) | 11% |
| TAATAGAGCTACTTAG (sugars k3 d10 k3, PS) | -16% |
| CTACAGACAAACACTA (sugars k3 d10 k3, PS) | 6% |
| CTGTGTTATGCCTGGT (sugars k3 d10 k3, PS) | -3% |
| ATTAAATTGATGGGCT (sugars k3 d10 k3, PS) | 20% |
| GCCAGTGGCCCACTCT (sugars k3 d10 k3, PS) | -8% |
| GTATTACTCTAATCAC (sugars k3 d10 k3, PS) | 34% |
| AACTTGCCATCTACTA (sugars k3 d10 k3, PS) | -18% |
| GTAAAAACAGGTCATC (sugars k3 d10 k3, PS) | 21% |
| CTTCACCACGAACTGC (sugars k3 d10 k3, PS) | 43% |
| GATGTGATTTTTAACC (sugars k3 d10 k3, PS) | 52% and 56% |
| CTTCTATAGTCTGAAG (sugars k3 d10 k3, PS) | 18% |
| CCGTCCTGGAAACCAG (sugars k3 d10 k3, PS) | 16% |
| GTCAAGCTCCTGACAA (sugars k3 d10 k3, PS) | 33% |
| TCCATGGTTGTCCTAC (sugars k3 d10 k3, PS) | 35% |
| GGCCTTTTAAAGTAGA (sugars k3 d10 k3, PS) | 28% |
| TATGAGCTTCAGACCT (sugars k3 d10 k3, PS) | -9% |
| CAATTTACATCACAAC (sugars k3 d10 k3, PS) | 45% |
| TACGCAACTGAGCCCC (sugars k3 d10 k3, PS) | 0% |
| ACTGATCTGACTTTGT (sugars k3 d10 k3, PS) | 32% |
| GTTCGCAGACAAAGTT (sugars k3 d10 k3, PS) | 36% |
| CTGCTCGCCTCCTCCG (sugars k3 d10 k3, PS) | 16% |

Reference: the OligoGym collection
